Measurements: patent US12421240B2, “Hydropyrazino[1,2-d][1,4]diazepine compounds for the treatment of autoimmune disease” (Hoffmann-La Roche Inc., priority 2019, dated 2025)
pIC50: −log10 of the molar value.

Biological target: T1, human TLR8 (Homo sapiens, UniProt Q9NR97)
T1 sequence (Q9NR97 27-1041): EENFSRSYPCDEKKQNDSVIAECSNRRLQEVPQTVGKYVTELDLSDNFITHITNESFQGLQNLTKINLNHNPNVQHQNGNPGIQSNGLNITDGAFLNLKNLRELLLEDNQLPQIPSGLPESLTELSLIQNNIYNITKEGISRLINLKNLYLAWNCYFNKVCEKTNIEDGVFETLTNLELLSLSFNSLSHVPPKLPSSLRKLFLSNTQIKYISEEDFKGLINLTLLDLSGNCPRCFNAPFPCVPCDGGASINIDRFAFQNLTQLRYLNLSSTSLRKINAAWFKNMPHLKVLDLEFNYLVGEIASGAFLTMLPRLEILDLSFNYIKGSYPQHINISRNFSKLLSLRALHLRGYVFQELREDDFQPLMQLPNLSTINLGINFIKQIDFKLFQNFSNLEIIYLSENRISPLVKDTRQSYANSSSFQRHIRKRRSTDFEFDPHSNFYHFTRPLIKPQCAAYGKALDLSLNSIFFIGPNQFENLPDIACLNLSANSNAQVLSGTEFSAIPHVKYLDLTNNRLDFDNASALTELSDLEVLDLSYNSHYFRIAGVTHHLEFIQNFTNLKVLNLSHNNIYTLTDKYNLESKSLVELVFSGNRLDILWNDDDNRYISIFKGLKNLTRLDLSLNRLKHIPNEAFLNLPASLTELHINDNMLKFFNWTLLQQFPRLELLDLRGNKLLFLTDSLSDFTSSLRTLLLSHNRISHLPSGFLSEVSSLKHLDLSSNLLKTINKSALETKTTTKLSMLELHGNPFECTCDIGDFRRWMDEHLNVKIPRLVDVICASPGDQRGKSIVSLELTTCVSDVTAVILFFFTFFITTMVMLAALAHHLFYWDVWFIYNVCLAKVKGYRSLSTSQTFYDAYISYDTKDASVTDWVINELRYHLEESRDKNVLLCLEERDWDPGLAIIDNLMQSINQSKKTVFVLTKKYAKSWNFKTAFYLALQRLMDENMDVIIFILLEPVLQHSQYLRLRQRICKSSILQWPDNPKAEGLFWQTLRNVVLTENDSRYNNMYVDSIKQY
Test: HEK293-Blue-hTLR-8 cells assay (SEAP reporter, R848 stimulation)
Format: cell-based
Conditions: HEK293-Blue-hTLR8 cells, R848 ligand, 20 hrs; read-out: HEK/hTLR8 IC50
Description: The following tests were carried out in order to determine the activity of the compounds of formula (I), (Ia) or (Ib) in HEK293-Blue-hTLR-7/8/9 cells assay.
HEK293-Blue-hTLR-8 Cells Assay:
A stable HEK293-Blue-hTLR-8 cell line was purchased from InvivoGen (Cat. #: hkb-htlr8, San Diego, California, USA). These cells were originally designed for studying the stimulation of human TLR8 by monitoring the activation of NF-κB. A SEAP (secreted embryonic alkaline phosphatase) reporter gene was placed under the control of the IFN-β minimal promoter fused to five NF-κB and AP-1-binding sites. The SEAP was induced by activating NF-κB and AP-1 via stimulating HEK-Blue hTLR8 cells with TLR8 ligands. Therefore the reporter expression was declined by TLR8 antagonist under the stimulation of a ligand, such as R848, for incubation of 20 hrs. The cell culture supernatant SEAP reporter activity was determined using QUANTI-Blue™ kit (Cat. #: rep-qb1, Invivogen, San Diego, Ca., USA) at a wavelength of 640 nm, a detection medium that turns purple or blue in the presence of alkaline phosphatase.
HEK293-Blue-hTLR8 cells were incubated at a density of 250,000˜450,000 cells/mL in a volume of 170 μL in a 96-well plate in Dulbecco's Modified Eagle's medium (DMEM) containing 4.5 g/L glucose, 50 U/mL penicillin, […], […], 2 mM L-glutamine, 10% (v/v) heat-inactivated fetal bovine serum with addition of 20 μL test compound in a serial dilution in the presence of final DMSO at 1% and 10 μL of 60 uM R848 in above DMEM, perform incubation under 37° C. in a CO2 incubator for 20 hrs. Then 20 μL of the supernatant from each well was incubated with 180 μL Quanti-blue substrate solution at 37° C. for 2 hrs and the absorbance was read at 620-655 nm using a spectrophotometer. The signaling pathway that TLR8 activation leads to downstream NF-κB activation has been widely accepted, and therefore similar reporter assay was modified for evaluating TLR8 antagonist.

| Compound | pIC50 |
| --- | --- |
| C[C@@H]1CN(c2ccc(C#N)c3ncccc23)C[C@@H]2CCN(Cc3ccc(N4C[C@@H](N)[C@@H](F)C4)cn3)CCN21 [Example 20, 5-[(4R,10aS)-8-[[5-[(3R,4S)-3-amino-4-fluoro-pyrrolidin-1-yl]-2-pyridyl]methyl]-4-methyl-1,3,4,6,7,9,10,10a-octahydropyrazino[1,2-d][1,4]diazepin-2-yl]quinoline-8-carbonitrile] | 7.96 |
| C[C@@H]1CN(c2ccc(C#N)c3ncccc23)C[C@@H]2CCN(Cc3ccc(N4CCOC[C@H](N)C4)cn3)CCN21 [Example 21, 5-[(4R,10aS)-8-[[5-[(6R)-6-amino-1,4-oxazepan-4-yl]-2-pyridyl]methyl]-4-methyl-1,3,4,6,7,9,10,10a-octahydropyrazino[1,2-d][1,4]diazepin-2-yl]quinoline-8-carbonitrile] | 7.06 |
| CO[C@@H]1CN(c2ccc(CN3CC[C@H]4CN(c5ccc(C#N)c6ncccc56)C[C@@H](C)N4CC3)nc2)C[C@H]1N [Example 22, 5-[(4R,10aS)-8-[[5-[(3R,4R)-3-amino-4-methoxy-pyrrolidin-1-yl]-2-pyridyl]methyl]-4-methyl-1,3,4,6,7,9,10,10a-octahydropyrazino[1,2-d][1,4]diazepin-2-yl]quinoline-8-carbonitrile] | 7.85 |
| C[C@@H]1CN(c2ccc(C#N)c3ncccc23)C[C@@H]2CCN(Cc3ncc(N4CCNCC4)cc3F)CCN21 [Example 23, 5-[(4R,10aS)-8-[(3-fluoro-5-piperazin-1-yl-2-pyridyl)methyl]-4-methyl-1,3,4,6,7,9,10,10a-octahydropyrazino[1,2-d][1,4]diazepin-2-yl]quinoline-8-carbonitrile] | 8.08 |
| CO[C@@H]1CN(c2cnc(CN3CC[C@H]4CN(c5ccc(C#N)c6ncccc56)C[C@@H](C)N4CC3)c(F)c2)C[C@H]1N [Example 24, 5-[(4R,10aS)-8-[[5-[(3R,4R)-3-amino-4-methoxy-pyrrolidin-1-yl]-3-fluoro-2-pyridyl]methyl]-4-methyl-1,3,4,6,7,9,10,10a-octahydropyrazino[1,2-d][1,4]diazepin-2-yl]quinoline-8-carbonitrile] | 8.10 |
| CO[C@@H]1CN(c2cnc(CN3CC[C@H]4CN(c5ccc(C#N)n6nccc56)C[C@@H](C)N4CC3)c(F)c2)C[C@H]1N [Example 26, 4-[(4R,10aS)-8-[[5-[(3R,4R)-3-amino-4-methoxy-pyrrolidin-1-yl]-3-fluoro-2-pyridyl]methyl]-4-methyl-1,3,4,6,7,9,10,10a-octahydropyrazino[1,2-d][1,4]diazepin-2-yl]pyrazolo[1,5-a]pyridine-7-carbonitrile] | 7.07 |
| CO[C@@H]1CN(c2cnc(CN3CC[C@H]4CN(c5ccc(C#N)n6ncc(F)c56)C[C@@H](C)N4CC3)c(F)c2)C[C@H]1N [Example 27, 4-[(4R,10aS)-8-[[5-[(3R,4R)-3-amino-4-methoxy-pyrrolidin-1-yl]-3-fluoro-2-pyridyl]methyl]-4-methyl-1,3,4,6,7,9,10,10a-octahydropyrazino[1,2-d][1,4]diazepin-2-yl]-3-fluoro-pyrazolo[1,5-a]pyridine-7-carbonitrile] | 8.00 |
| C[C@@H]1CN(c2cc(=O)n(C)c3ncccc23)C[C@@H]2CCN(Cc3ccc4c(c3)CNCC4)CCN21 [Example 28, 4-[(4R,10aS)-4-methyl-8-(1,2,3,4-tetrahydroisoquinolin-7-ylmethyl)-1,3,4,6,7,9,10,10a-octahydropyrazino[1,2-d][1,4]diazepin-2-yl]-1-methyl-1,8-naphthyridin-2-one] | 7.29 |
